Test results published in paper PMC5983288, “The Maxi-K (BK) Channel Antagonist Penitrem A as a Novel Breast Cancer-Targeted Therapeutic” (Marine Drugs, 2018).

Experiments:
[1] = tested on: human neuronal Schwann cells CRL-2765; experiment: MTT cell viability assay, Schwann CRL-2765; type: cell-based; details: CRL-2765, MTT, 48 h
Method: (§1) Penitrems were dissolved in dimethyl sulfoxide (DMSO) to provide a final 25 mM stock solution. Proper media were used to prepare penitrems at their final tested doses for each assay. […] The effects of penitrems 1–3 on the proliferation and growth of multiple BC cell lines were evaluated using MTT assay. MDA-MB-231, BT-474, and SK-BR-3 BC cells (ATCC, Manassas, VA, USA) were initially seeded at 1 × 10^4 cells/well (6 replicates/group) in 96-well plates in RPMI-1640 media containing 10% FBS, and allowed to attach overnight. The next day, cells were washed with PBS, divided into different treatment groups, and then given various concentrations of tested penitrems in 0.5% FBS containing media. Viable cell number was calculated after 48 h using the MTT assay.
(§2) To evaluate the effect of penitrems on growth of the human neuronal Schwann CRL 2765 (ATCC, Manassas, VA, USA), cells were plated at a density of 1 × 10^4 cell per well (6-wells/group) in 96-well culture plates using the ATCC-recommended media (Dulbecco’s Modified Eagle’s Medium, DMEM) and allowed to adhere overnight for growth studies, after which each treatment was added, and cells were maintained for 48 h. Similarly, the non-tumorigenic mammary epithelial MCF-12A cells were plated in DMEM/F12 supplemented with 5% horse serum, […], 20 ng/mL EGF, 100 U/mL penicillin, 0.1 mg/mL streptomycin, and […]. Next day, cells were divided into different groups and fed serum-free DMEM media supplemented with experimental treatments or vehicle-treated control media. Viable cell number was determined using the MTT colorimetric assay. The absorbance was measured at λ570 nm on a BioTek Synergy2 microplate reader (BioTek, Winooski, VT, USA). The number of cells per well was calculated against a standard curve prepared at the start of the experiment. The IC50 value for each tested sample was calculated by non-linear regression of log concentration versus the % survival, implemented in GraphPad® PRISM version 5.0 (Graph Pad Software, Inc., La Jolla, CA, USA).

[2] = tested on: BT-474 cells; experiment: cells; type: cell-based, human
Method: as §1, with “MDA-MB-231, BT-474, and SK-BR-3 BC cells (ATCC, Manassas, VA, USA) were initially seeded at 1 × 10^4 cells/well (6 replicates/group) in 96-well plates in RPMI-1640 media containing 10% FBS, and allowed to attach overnight.” left out
as §2, with “Similarly,” for “To evaluate the effect of penitrems on growth of the human neuronal Schwann CRL 2765 (ATCC, Manassas, VA, USA), cells were plated at a density of 1 × 10^4 cell per well (6-wells/group) in 96-well culture plates using the ATCC-recommended media (Dulbecco’s Modified Eagle’s Medium, DMEM) and allowed to adhere overnight for growth studies, after which each treatment was added, and cells were maintained for 48 h. Similarly,”

[3] = tested on: MCF-12A cells (non-tumorigenic human mammary epithelial cells); experiment: MTT cell viability assay, MCF-12A; type: cell-based; details: 48 h
Method: as §1, §2

[4] = tested on: MDA-MB-231 cells; experiment: MTT cell viability assay, MDA-MB-231; type: cell-based, human; details: MDA-MB-231, MTT, 48 h
Method: as §1, §2

[5] = tested on: SK-BR-3 cells; experiment: MTT cell viability assay, SK-BR-3; type: cell-based, human; details: SK-BR-3, MTT, 48 h
Method: as §1, §2

[6] = tested on: BK channel subunits α-1 (KCNMA1); experiment: Immunocytochemical fluorescence staining of KCNMA1; type: cell-based, human; details: MDA-MB-231 (9.8 µM) and BT-474 (10.3 µM), 24 h, vs vehicle-treated controls
Method: Immunocytochemical fluorescent studies were conducted by growing MDA-MB-231 and BT-474 cells mammary cancer cells on 8-chamber culture slides (Becton Dickinson and Company, Franklin Lakes, NJ, USA) at a density of 2 × 10^4 cells/chamber (2 replicates/group), and allowed to attach overnight in complete serum media supplemented with 10% FBS. […] At the end of experiment, cells were washed with pre-cooled PBS, and fixed with acetone, pre-cooled to −20 °C, for 2 min. Fixed cells were then washed with PBS, and blocked with 2% BSA in 10 mM Tris-HCl containing 50 mM NaCl and 0.1% Tween 20, pH 7.4 (TBST) for 1 h at rt. Cells were then incubated with specific primary antibody for BK channel KCNMA1 (1:300) overnight at 4 °C in 2% BSA-TBST. At the end of incubation time, cells were washed five times with pre-cooled PBS, followed by incubation with Alexa-Fluor 594-conjugated secondary antibody (1:5000) in 2% BSA-TBST for 1 h at rt. After final washing for five times with PBS, cells were embedded in Vectashield Mounting Medium with DAPI (Vector Laboratories Inc., Burlingame, CA, USA). Fluorescent images were obtained by using a confocal laser scanning microscope (Carl Zeiss Microimaging Inc., Thornwood, NY, USA). The red color indicates the positive fluorescence staining for BK channel KCNMA1, and the blue color represents MDA-MB-231 cell nuclei counter-stained with DAPI [30]. […]

[7] = tested on: BK channels; set-up: method as in PMID 27834847, PMID 14593856; details: cited from earlier work
[8] = tested on: BK channel subunits α-1 (KCNMA1); experiment: Western blot, BK channel expression in BC cells; type: cell-based, human; details: MDA-MB-231, BT-474, SK-BR-3; 10 µM treatments; vs control
Method: (§3) MDA-MB-231, BT-474, SK-BR-3, Schwann CRL-2765, and MCF-12A cells, were plated at a density of 1 × 10^6 cells/100 mm culture plates. MDA-MB-231, BT-474, and SK-BR-3 were plated in RPMI-1640 media supplemented with 10% FBS, Schwann cells CRL-2765 were plated in DMEM media supplemented with 10% FBS [11], and MCF-12A cells were plated in DMEM/F12 supplemented with ingredients described earlier. Cells were allowed to adhere overnight, then washed twice with PBS, and starved in control or treatment in serum-free medium containing 0.5% FBS for 48 h to synchronize the cells in G1 phase. Afterwards, cells were treated with tested penitrems in serum-free defined media for 24 h. At the end of treatment periods, cells were lysed in RIPA buffer (Qiagen Sciences Inc., Valencia, CA, USA). Protein concentration was determined by the BCA assay (Bio-Rad, Hercules, CA, USA). Equivalent amounts of protein (50 µg) were electrophoresed on SDS-polyacrylamide gels. The gels were then electroblotted onto PVDF membranes. These PVDF membranes were then blocked with 2% BSA in 10 mM Tris-HCl containing 50 mM NaCl and 0.1% Tween 20, pH 7.4 (TBST), and then incubated with specific primary antibodies overnight at 4 °C. […] Western blot quantification analysis was done using Image Lab ^TM Software (Bio-Rad, Hercules, CA, USA) for total protein normalization.

[9] = tested on: TNF-α; experiment: Western blot, TNF-α levels in BC cells; type: cell-based, human; details: MDA-MB-231, BT-474, SK-BR-3; 10 µM treatments; vs control
Method: as §3

[10] = Homo sapiens, BT-474, MTT, 48 h

Row | Compound | IC50 ([1]; Homo sapiens) | IC50 [2, 10] | IC50 ([3]; Homo sapiens) | IC50 ([4]; Homo sapiens) | IC50 ([5]; Homo sapiens) | IC50 ([2]; Homo sapiens, BT-474, single agent) | IC50 [1] | total levels of KCNMA1 (immunofluorescence) [6] | IC50 ([2]; BT-474, MTT, 48 h) | IC50 [3] | BK channels antagonism [7] | total levels of BK channel subunits α-1 (KCNMA1) [8] | IC50 [4] | total levels of TNF-α [9] | IC50 [5]
1 | C=C(C)C1OC2CCC3(C)C4(C)c5[nH]c6cc(Cl)c7c8c6c5C(OC(C)(C)C5CC(C(=C)C7)C85O)C4CCC3(O)C23OC3C1OC (stereo not shown) [Compound 3, 25-O-methylpenitrem A] | 48.2 µM | 22.4 µM | 78.8 µM | 37.8 µM | 27.1 µM |  |  |  |  |  |  |  |  |  | 
2 | CS(=O)(=O)CCNCc1ccc(-c2ccc3ncnc(Nc4ccc(OCc5cccc(F)c5)c(Cl)c4)c3c2)o1 [LP, lapatinib, reference compound] |  |  |  |  |  | 0.123 µM |  |  |  |  |  |  |  |  | 
3 | Penitrem A [Compound 1] |  |  |  |  |  |  | 22.6 µM | remarkable reduction | 10.3 µM | 33.7 µM | potent BK channels antagonist at very low molar concentration | greatest reduction | 9.8 µM | increased total levels of TNF-α | 15.1 µM
4 | C=C(C)[C@H]1O[C@H]2CC[C@@]3(C)[C@@](O)(CC[C@H]4[C@@H]5OC(C)(C)[C@H]6C[C@@H]7C(=C)Cc8ccc9[nH]c(c5c9c8[C@@]76O)[C@@]43C)[C@]23O[C@@H]3[C@H]1O [Compound 2, Penitrem E] | 67.8 µM | 31.8 µM | 44 µM | 20.3 µM | 36.7 µM |  |  |  |  |  |  | did not cause changes |  | increased total levels of TNF-α in both BT-474 and SK-BR-3 cells | 
